# Source: patent US20240207267A1, “(R)-Glutarimide CRBN Ligands and Methods of Use” (BeiGene Switzerland GmbH, priority 2021, published 2024)
# Experiments:
# [1] = molecular target: EGFR L858R/T790M/C797S (BaF3-LTC cells) (Homo sapiens (Human), UniProt P00533, C797S/L858R/T790M); experiment: EGFR degradation HTRF assay in BaF3-LTC cells; format: cell-based; details: 16 h treatment; for DC50: Table 2, read-out: BaF3-LTC DC50; for Dmax: maximum percentage of degradation, Table 2, read-out: BaF3-LTC Dmax
# Procedure: (§1) BaF3-LTC(L858R/T790M/C797S) and BaF3-DTC(Del19/T790M/C797S) cells are treated with compounds diluted in 0.2% DMSO cell culture medium and incubate for 16 h, 37° C., 5% CO2, H1975- #28 cells are treated with compounds diluted in 0.2% DMSO cell culture medium on day 2, incubate for 16 h, 37° C., 5% CO2. the final concentration of compounds in all assay is start with 10 uM, 5-fold dilution, total 8 doses were included.
# (§2) After 16 h treatment, add HTRF lysis buffer to each well; seal the plate and incubate 1 hour at room temperature on a plate shaker; Once the cells are lysed, 16 μL of cell lysate are transferred to a PE 384-well HTRF detection plate; 4 μL of pre-mixed HTRF antibodies are added to each well; Cover the plate with a plate sealer, spin 1000 rpm for 1 min, Incubate overnight at room temperature; Read on BMG PheraStar with HTRF protocol (337 nm-665 nm-620 nm).
# (§3) The IC50 (DC50) value of a compound can be obtained by fitting the following equation
# (§4) Y=Bottom+(TOP−Bottom)/(1+((IC50/X)^hillslope))
# (§5) Wherein, X and Y are known values, and IC50, Hillslope, Top and Bottom are the parameters obtained by fitting with software. Y is the inhibition percentage (calculated from the equation), X is the concentration of the compound; IC50 is the concentration of the compound when the 50% inhibition is reached. The smaller the IC50 value is, the stronger the inhibitory ability of the compound is. Vice versa, the higher the IC50 value is, the weaker the ability the inhibitory ability of the compound is; Hillslope represents the slope of the fitted curve, generally around 1*; Bottom represents the minimum value of the curve obtained by data fitting, which is generally 0%±20%; Top represents the maximum value of the curve obtained by data fitting, which is generally 100%±20%. The experimental data were fitted by calculating and analyzing with Dotmatics data analysis software.
# [2] = test system: EGFR Del19/T790M/C797S (H1975-clone #28 cells); experiment: EGFR degradation HTRF assay in H1975-clone #28 cells; format: cell-based; details: H1975-clone #28(Del19/T790M/C797S) cells, 16 h treatment, Table 2; for DC50: read-out: H1975 # 28 DTC DC50; for H1975 # 28 DTC Dmax: maximum percentage of degradation
# Procedure: H1975-clone #28(Del19/T790M/C797S) was stably expressed in H1975 cell lines (from ATCC) by lentivirus-mediated over-expression. The EGFR over-expressed cells then underwent gene knockout, in which the EGFR targeting sgRNA was designed to only target the endogenous EGFR copies and preserve the exogenous EGFR copies. Followed by the gene knockout, the edited H1975 cells were seeded in 96 well plates at the concentration of […], cultured for about 2 weeks to allow single clones formation. The formed clones were screened by DNA sequencing and whole exon sequencing analysis for the desired edition. H1975-clone #28 was finally confirmed as homozygous Del19/T790M/C797S EGFR clone
# as §1, §2, §3, §4, §5
# Sequence of EGFR L858R/T790M/C797S (BaF3-LTC cells) (P00533 25-1210 T790M/C797S/L858R): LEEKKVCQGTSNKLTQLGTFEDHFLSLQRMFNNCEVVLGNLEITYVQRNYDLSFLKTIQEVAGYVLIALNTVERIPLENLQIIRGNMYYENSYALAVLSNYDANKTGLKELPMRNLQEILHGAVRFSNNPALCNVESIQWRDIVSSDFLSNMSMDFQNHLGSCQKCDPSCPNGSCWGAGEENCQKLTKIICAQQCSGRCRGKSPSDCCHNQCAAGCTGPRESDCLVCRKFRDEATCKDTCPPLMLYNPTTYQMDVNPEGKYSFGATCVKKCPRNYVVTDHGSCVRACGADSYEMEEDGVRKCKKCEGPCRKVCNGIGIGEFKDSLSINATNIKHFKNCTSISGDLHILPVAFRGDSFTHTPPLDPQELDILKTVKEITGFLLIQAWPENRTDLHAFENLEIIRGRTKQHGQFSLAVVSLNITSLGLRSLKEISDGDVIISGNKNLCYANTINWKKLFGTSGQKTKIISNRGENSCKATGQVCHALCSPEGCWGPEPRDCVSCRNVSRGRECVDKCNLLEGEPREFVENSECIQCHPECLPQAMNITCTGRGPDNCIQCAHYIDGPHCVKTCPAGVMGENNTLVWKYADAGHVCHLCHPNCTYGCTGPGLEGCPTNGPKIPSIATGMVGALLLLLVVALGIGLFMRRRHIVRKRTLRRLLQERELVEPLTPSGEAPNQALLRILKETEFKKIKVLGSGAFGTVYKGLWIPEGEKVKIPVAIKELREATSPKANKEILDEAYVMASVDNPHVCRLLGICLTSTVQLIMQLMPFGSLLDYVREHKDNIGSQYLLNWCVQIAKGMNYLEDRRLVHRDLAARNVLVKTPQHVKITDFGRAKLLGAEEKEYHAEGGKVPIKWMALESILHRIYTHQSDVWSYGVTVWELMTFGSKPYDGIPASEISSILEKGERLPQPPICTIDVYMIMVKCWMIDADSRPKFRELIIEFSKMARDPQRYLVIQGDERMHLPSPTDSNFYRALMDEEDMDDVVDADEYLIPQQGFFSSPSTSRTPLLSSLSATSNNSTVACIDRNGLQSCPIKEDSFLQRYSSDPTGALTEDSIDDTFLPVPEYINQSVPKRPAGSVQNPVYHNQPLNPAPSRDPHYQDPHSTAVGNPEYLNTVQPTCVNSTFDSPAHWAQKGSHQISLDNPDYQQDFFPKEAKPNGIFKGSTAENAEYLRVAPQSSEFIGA
DC50 [1] [nM],Dmax [1] [%],DC50 [2] [nM],Structure (SMILES),H1975 # 28 DTC Dmax [2] [%]
90,69,> 10000,"CCc1ccc2c(P(C)(C)=O)c(Nc3nc(Nc4cc(CC)c(N5CCC(N6CCN(CCc7cc(F)c([C@@H]8CCC(=O)NC8=O)c(F)c7)CC6)CC5)cc4OC)ncc3Br)ccc2n1 [Example 20, (S)-3-(4-(2-(4-(1-(4-((5-bromo-4-((5-(dimethylphosphoryl)-2-ethylquinolin-6-yl)amino)pyrimidin-2-yl)amino)-2-ethyl-5-methoxyphenyl)piperidin-4-yl)piperazin-1-yl)ethyl)-2,6-difluorophenyl)piperidine-2,6-dione]",19.09
6.77,–,0.78,"CCc1ccc2c(P(C)(C)=O)c(Nc3nc(Nc4cc(CC)c(N5CCC(N6CCN(CCc7cc(F)c([C@H]8CCC(=O)NC8=O)c(F)c7)CC6)CC5)cc4OC)ncc3Br)ccc2n1 [Example 21, (R)-3-(4-(2-(4-(1-(4-((5-bromo-4-((5-(dimethylphosphoryl)-2-ethylquinolin-6-yl)amino)pyrimidin-2-yl)amino)-2-ethyl-5-methoxyphenyl)piperidin-4-yl)piperazin-1-yl)ethyl)-2,6-difluorophenyl)piperidine-2,6-dione]",89.6
5.23,–,1.17,"CCc1cc(Nc2ncc(Br)c(Nc3ccc4nc(C)ccc4c3P(C)(C)=O)n2)c(OC)cc1N1CCC(N2CCN(C(=O)[C@@H]3CCN(c4cc(F)c([C@H]5CCC(=O)NC5=O)c(F)c4)C3)CC2)CC1 [Example 22, (R)-3-(4-((R)-3-(4-(1-(4-((5-bromo-4-((5-(dimethylphosphoryl)-2-methylquinolin-6-yl)amino)pyrimidin-2-yl)amino)-2-ethyl-5-methoxyphenyl)piperidin-4-yl)piperazine-1-carbonyl)pyrrolidin-1-yl)-2,6-difluorophenyl)piperidine-2,6-dione]",84.8
8.99,–,1.37,"CCc1ccc2c(P(C)(C)=O)c(Nc3nc(Nc4cc(CC)c(N5CCC(N6CCN(C(=O)[C@@H]7CCN(c8cc(F)c([C@H]9CCC(=O)NC9=O)c(F)c8)C7)CC6)CC5)cc4OC)ncc3Br)ccc2n1 [Example 24, (R)-3-(4-((R)-3-(4-(1-(4-((5-bromo-4-((5-(dimethylphosphoryl)-2-ethylquinolin-6-yl)amino)pyrimidin-2-yl)amino)-2-ethyl-5-methoxyphenyl)piperidin-4-yl)piperazine-1-carbonyl)pyrrolidin-1-yl)-2,6-difluorophenyl)piperidine-2,6-dione]",82.72
360,57.2,> 10000,"CCc1ccc2c(P(C)(C)=O)c(Nc3nc(Nc4cc(CC)c(N5CCC(N6CCN(C(=O)[C@@H]7CCN(c8cc(F)c([C@@H]9CCC(=O)NC9=O)c(F)c8)C7)CC6)CC5)cc4OC)ncc3Br)ccc2n1 [Example 25, (S)-3-(4-((R)-3-(4-(1-(4-((5-bromo-4-((5-(dimethylphosphoryl)-2-ethylquinolin-6-yl)amino)pyrimidin-2-yl)amino)-2-ethyl-5-methoxyphenyl)piperidin-4-yl)piperazine-1-carbonyl)pyrrolidin-1-yl)-2,6-difluorophenyl)piperidine-2,6-dione]",−8.4
–,–,0.851,"CCc1cc(Nc2ncc(Br)c(Nc3ccc4nc(C)ccc4c3P(C)(C)=O)n2)c(OC2CC2)cc1N1CCC(N2CCN(CCc3cc(F)c([C@H]4CCC(=O)NC4=O)c(F)c3)CC2)CC1 [Example 26, (R)-3-(4-(2-(4-(1-(4-((5-bromo-4-((5-(dimethylphosphoryl)-2-methylquinolin-6-yl)amino)pyrimidin-2-yl)amino)-5-cyclopropoxy-2-ethylphenyl)piperidin-4-yl)piperazin-1-yl)ethyl)-2,6-difluorophenyl)piperidine-2,6-dione]",86.08
